Reference: PMC5190008, “BO-1055, a novel DNA cross-linking agent with remarkable low myelotoxicity shows potent activity in sarcoma models” (Oncotarget, 2016)

Assays:
[1] = test system: A673 spheroids; test: Spheroid assay in 3D culture (methylcellulose); format: cell-based, human; details: A673 spheroids in methylcellulose, scored 14 days after plating
Experimental: A673 cells were seeded on flat bottom non attachment 24 well plates (1000 cells/well) in triplicate using 1.2 % methylcellulose (Dow Chemical, Waterloo, NY) mixed with 20% FCS and specified concentrations of BO-1055 or 4HC as shown in Figure 1D. Samples were incubated at 37°C / 5 % CO2 and colonies were scored 14 days after plating.

[2] = test system: patient derived Ewing sarcoma xenografts; test: Cyclophosphamide resistant patient-derived Ewing sarcoma xenografts; format: in vivo, NSG mice; details: cyclophosphamide MTD 70mg/kg i.p. q2d for 3 doses
Experimental: Patient derived xenografts were established from Ewing sarcoma patients who progressed through first line chemotherapy that included cyclophosphamide, doxorubicin, vincristine, ifosfamide and etoposide (PS3). When these Ewing sarcoma xenografts (n = 10) reached 100mm^3, they were randomized to control and treatment groups.
All mouse experiments were performed at the animal core facility at MSKCC under an approved protocol following the IACUC guidelines. Five to seven-week-old NOD/SCID IL2R gamma null (NSG) mice (bred at the Mouse Genetics Core Facility, MSKCC) were used for in vivo experiments. All mouse experiments were done following the IACUC guidelines at the animal facility at MSKCC. Tumors were induced using 10^6 A673 cells or A204 cells in 0.2ml 1:1 cellular medium, Matrigel matrix (BD Bioscience, Bedford, MA) and injected subcutaneously (s.q) into the right flank. The tumors were measured every 3 d with a caliper, and the diameters were recorded. Tumor volume was calculated by the formula a^2 b/2 where ‘a’ is the smallest and ‘b’ is the largest diameter. When the tumors reached 100mm^3, we randomized mice into control and drug treatment groups. Treatment groups received BO-1055 by tail vein injection at 10mg/kg, 20mg/kg and 30mg/kg q2d x 5 doses for mice bearing A673 xenografts. BO-1055 was given at 30mg/kg q2d x 5 doses for mice bearing A204 xenografts. […]

[3] = test system: CCRF-CEM/Taxol cells; design: method as in PMID 21106377; details: CCRF-CEM/Taxol ref 6; cited from earlier work

O=P1(N(CCCl)CCCl)NC(OO)CCO1 (stereo not drawn) [4-HC, 4-hydroperoxy cyclophosphamide, reference compound]
concentration giving complete inhibition of spheroids [1]: 5 µM

O=P1(N(CCCl)CCCl)NCCCO1 (stereo not drawn) [cyclophosphamide, reference compound]
tumor growth [2]: not inhibited

CC(=O)O[C@H]1C(=O)[C@@]2(C)[C@H]([C@H](OC(=O)c3ccccc3)[C@]3(O)C[C@H](OC(=O)[C@H](O)[C@@H](NC(=O)c4ccccc4)c4ccccc4)C(C)=C1C3(C)C)[C@]1(OC(C)=O)CO[C@@H]1C[C@@H]2O [taxol, reference compound]
resistance of CCRF-CEM/Taxol cells [3]: 330 fold
